# Literature values in patent publication US20150010635A1, “CONTROLLED RELEASE PARTICLES, WOOD TREATMENT AGENT, AND PRODUCING METHOD THEREOF” (Japan EnviroChemicals, Ltd., priority 2011, published 2015).
# Read-outs that look alike come from different tables or passages of the source.
SMILES,water solubility (room temperature) [ppm],water solubility [ppb]
"CCCC1COC(Cn2cncn2)(c2ccc(Cl)cc2Cl)O1 (stereo not shown) [Propiconazole, 1-[2-(2,4-dichlorophenyl)-4-n-propyl-1,3-dioxolane-2-ylmethyl]-1H-1,2,4-triazole]",110,–
"CCN(CC)C(=O)c1cccc(C)c1 [DEET, N,N-diethyl-m-toluamide]",990,–
"CCOc1ccc(C(C)(C)COCc2cccc(Oc3ccccc3)c2)cc1 [Ethofenprox, 2-(4-ethoxyphenyl)-2-methylpropyl-3-phenoxybenzylether]",–,22.5
"CC1(C)C(C=C(Cl)Cl)C1C(=O)OCc1cccc(Oc2ccccc2)c1 (stereo not drawn) [Permethrin, 3-phenoxybenzyl(1RS,3RS;1RS,3SR)-3-(2,2-dichlorovinyl)-2,2-dimethylcyclopropanecarboxylate]",–,6
